Results reported in PMC9234961 (Journal of Medicinal Chemistry, 2022).

What was measured:
kinases (468) [1] = target: kinases (468) (Homo sapiens, UniProt P42345); settings: MTOR; 1000 nM
kinases (468) [2] = target: kinases (468) (Homo sapiens, UniProt Q13177); settings: PAK2; 1000 nM
kinases (468) [3] = target: kinases (468) (Homo sapiens, UniProt P51617); settings: IRAK1; 1000 nM
kinases (468) [4] = target: kinases (468) (Homo sapiens, UniProt Q13554); settings: CAMK2B; 1000 nM
kinases (468) [5] = target: kinases (468) (Homo sapiens, UniProt P04049); settings: RAF1; 1000 nM
Chain of kinases (468) (Homo sapiens, UniProt P04049) (P04049 whole entry): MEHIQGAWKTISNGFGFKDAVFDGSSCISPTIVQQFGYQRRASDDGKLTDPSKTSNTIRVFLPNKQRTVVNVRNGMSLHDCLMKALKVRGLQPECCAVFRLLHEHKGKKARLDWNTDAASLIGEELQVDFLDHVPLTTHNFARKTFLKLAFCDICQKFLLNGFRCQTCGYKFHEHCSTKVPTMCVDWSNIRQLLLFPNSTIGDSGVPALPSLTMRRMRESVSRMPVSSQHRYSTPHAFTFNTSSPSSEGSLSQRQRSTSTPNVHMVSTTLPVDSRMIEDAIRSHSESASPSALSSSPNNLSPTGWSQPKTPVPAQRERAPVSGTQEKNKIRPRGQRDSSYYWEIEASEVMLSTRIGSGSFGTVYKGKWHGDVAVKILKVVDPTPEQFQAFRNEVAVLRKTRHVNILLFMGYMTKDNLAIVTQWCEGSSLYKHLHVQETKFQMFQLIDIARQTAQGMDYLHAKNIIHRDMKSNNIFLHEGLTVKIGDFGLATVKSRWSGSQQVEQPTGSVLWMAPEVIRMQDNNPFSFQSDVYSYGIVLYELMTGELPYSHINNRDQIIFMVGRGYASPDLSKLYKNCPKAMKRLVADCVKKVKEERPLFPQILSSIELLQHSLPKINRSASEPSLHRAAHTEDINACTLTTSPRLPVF

kinases (468) [6] = target: kinases (468) (Homo sapiens, UniProt Q86Y07); settings: kinase VRK2 (Entrez VRK2); compound concentration 1000 nM
kinases (468) [7] = target: kinases (468) (Homo sapiens, UniProt Q8IY84); settings: NIM1 (MGC42105); 1000 nM
kinases (468) [8] = target: kinases (468) (Homo sapiens, UniProt P43403); settings: kinase ZAP70 (Entrez ZAP70); compound concentration 1000 nM
kinases (468) [9] = target: kinases (468) (Homo sapiens, UniProt Q8NI60); settings: ADCK3 (CABC1); 1000 nM
kinases (468) [10] = target: kinases (468) (Homo sapiens, UniProt P22694); settings: PKAC-beta (PRKACB); 1000 nM
kinases (468) [11] = target: kinases (468) (Homo sapiens, UniProt P37173); settings: kinase TGFBR2 (Entrez TGFBR2); compound concentration 1000 nM
kinases (468) [12] = target: kinases (468) (Homo sapiens, UniProt P10721, A829P); settings: KIT(A829P); 1000 nM
kinases (468) [13] = target: kinases (468) (Homo sapiens, UniProt Q9BZL6); settings: PRKD2; 1000 nM
kinases (468) [14] = target: kinases (468) (Homo sapiens, UniProt P45983); settings: JNK1 (MAPK8); 1000 nM
kinases (468) [15] = target: kinases (468) (Homo sapiens, UniProt Q16816); settings: PHKG1; 1000 nM
kinases (468) [16] = target: kinases (468) (Homo sapiens, UniProt P07332); settings: FES; 1000 nM
kinases (468) [17] = target: kinases (468) (Homo sapiens, UniProt Q9C098); settings: DCAMKL3 (DCLK3); 1000 nM
kinases (468) [18] = target: kinases (468) (Homo sapiens, UniProt P36888, N841I); settings: FLT3(N841I); 1000 nM
kinases (468) [19] = target: kinases (468) (Homo sapiens, UniProt P68400); settings: CSNK2A1; 1000 nM
kinases (468) [20] = target: kinases (468) (Homo sapiens, UniProt Q9H2X6); settings: HIPK2; 1000 nM
kinases (468) [21] = target: kinases (468) (Homo sapiens, UniProt P08922); settings: kinase ROS1 (Entrez ROS1); compound concentration 1000 nM
kinases (468) [22] = target: kinases (468) (Homo sapiens, UniProt Q6DT37); settings: DMPK2 (CDC42BPG); 1000 nM
kinases (468) [23] = target: kinases (468) (Homo sapiens, UniProt Q8N568); settings: DCAMKL2 (DCLK2); 1000 nM
Chain of kinases (468) (Homo sapiens, UniProt Q8N568) (Q8N568 whole entry): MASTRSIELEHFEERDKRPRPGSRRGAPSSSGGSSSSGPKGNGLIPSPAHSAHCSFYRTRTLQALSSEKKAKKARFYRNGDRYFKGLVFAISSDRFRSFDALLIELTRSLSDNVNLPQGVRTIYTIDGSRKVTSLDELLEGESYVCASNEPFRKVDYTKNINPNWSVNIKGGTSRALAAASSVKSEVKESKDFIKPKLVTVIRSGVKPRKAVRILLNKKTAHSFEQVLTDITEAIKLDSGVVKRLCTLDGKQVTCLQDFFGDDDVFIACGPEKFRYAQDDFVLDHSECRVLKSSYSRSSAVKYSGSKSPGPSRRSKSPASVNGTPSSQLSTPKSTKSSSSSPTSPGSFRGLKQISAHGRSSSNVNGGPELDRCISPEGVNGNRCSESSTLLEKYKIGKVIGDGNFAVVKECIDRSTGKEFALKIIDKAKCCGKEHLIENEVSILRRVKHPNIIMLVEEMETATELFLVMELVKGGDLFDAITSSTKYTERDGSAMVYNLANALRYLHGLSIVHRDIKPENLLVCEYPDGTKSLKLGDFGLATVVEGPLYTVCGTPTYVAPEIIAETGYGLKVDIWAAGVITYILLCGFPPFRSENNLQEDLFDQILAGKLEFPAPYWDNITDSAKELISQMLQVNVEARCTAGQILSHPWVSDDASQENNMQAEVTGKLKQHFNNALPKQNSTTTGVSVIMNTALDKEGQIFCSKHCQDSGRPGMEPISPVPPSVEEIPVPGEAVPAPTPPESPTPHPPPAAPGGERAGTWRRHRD

kinases (468) [24] = target: kinases (468) (Homo sapiens, UniProt P31749); settings: AKT1; 1000 nM
kinases (468) [25] = target: kinases (468) (Homo sapiens, UniProt Q9UBE8); settings: NLK; 1000 nM
kinases (468) [26] = target: kinases (468) (Homo sapiens, UniProt O15530); settings: PDPK1; 1000 nM
kinases (468) [27] = target: kinases (468) (Homo sapiens, UniProt Q9UPZ9); settings: ICK; 1000 nM
Chain of kinases (468) (Homo sapiens, UniProt Q9UPZ9) (Q9UPZ9 whole entry): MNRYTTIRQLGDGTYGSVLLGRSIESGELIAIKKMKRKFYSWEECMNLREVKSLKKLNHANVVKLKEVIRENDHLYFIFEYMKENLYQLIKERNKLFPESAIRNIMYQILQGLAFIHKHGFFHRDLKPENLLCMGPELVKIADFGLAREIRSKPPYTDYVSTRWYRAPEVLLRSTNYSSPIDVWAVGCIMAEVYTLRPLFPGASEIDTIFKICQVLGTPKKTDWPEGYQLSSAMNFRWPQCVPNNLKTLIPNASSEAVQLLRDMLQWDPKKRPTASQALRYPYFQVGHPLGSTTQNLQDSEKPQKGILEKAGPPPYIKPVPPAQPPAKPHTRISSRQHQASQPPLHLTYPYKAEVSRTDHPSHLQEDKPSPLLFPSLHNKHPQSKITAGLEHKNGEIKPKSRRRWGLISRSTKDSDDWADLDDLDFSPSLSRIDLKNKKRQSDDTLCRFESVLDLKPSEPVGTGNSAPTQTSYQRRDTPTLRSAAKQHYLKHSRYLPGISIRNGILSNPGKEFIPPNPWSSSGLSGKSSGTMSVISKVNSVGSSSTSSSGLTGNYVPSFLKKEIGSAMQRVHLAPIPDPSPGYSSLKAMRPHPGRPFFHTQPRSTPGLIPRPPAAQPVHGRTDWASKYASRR

kinases (468) [28] = target: kinases (468) (Homo sapiens, UniProt O15197); settings: EPHB6; 1000 nM
kinases (468) [29] = target: kinases (468) (Homo sapiens, UniProt Q96J92); settings: kinase WNK4 (Entrez WNK4); compound concentration 1000 nM
Chain of kinases (468) (Homo sapiens, UniProt Q96J92) (Q96J92 whole entry): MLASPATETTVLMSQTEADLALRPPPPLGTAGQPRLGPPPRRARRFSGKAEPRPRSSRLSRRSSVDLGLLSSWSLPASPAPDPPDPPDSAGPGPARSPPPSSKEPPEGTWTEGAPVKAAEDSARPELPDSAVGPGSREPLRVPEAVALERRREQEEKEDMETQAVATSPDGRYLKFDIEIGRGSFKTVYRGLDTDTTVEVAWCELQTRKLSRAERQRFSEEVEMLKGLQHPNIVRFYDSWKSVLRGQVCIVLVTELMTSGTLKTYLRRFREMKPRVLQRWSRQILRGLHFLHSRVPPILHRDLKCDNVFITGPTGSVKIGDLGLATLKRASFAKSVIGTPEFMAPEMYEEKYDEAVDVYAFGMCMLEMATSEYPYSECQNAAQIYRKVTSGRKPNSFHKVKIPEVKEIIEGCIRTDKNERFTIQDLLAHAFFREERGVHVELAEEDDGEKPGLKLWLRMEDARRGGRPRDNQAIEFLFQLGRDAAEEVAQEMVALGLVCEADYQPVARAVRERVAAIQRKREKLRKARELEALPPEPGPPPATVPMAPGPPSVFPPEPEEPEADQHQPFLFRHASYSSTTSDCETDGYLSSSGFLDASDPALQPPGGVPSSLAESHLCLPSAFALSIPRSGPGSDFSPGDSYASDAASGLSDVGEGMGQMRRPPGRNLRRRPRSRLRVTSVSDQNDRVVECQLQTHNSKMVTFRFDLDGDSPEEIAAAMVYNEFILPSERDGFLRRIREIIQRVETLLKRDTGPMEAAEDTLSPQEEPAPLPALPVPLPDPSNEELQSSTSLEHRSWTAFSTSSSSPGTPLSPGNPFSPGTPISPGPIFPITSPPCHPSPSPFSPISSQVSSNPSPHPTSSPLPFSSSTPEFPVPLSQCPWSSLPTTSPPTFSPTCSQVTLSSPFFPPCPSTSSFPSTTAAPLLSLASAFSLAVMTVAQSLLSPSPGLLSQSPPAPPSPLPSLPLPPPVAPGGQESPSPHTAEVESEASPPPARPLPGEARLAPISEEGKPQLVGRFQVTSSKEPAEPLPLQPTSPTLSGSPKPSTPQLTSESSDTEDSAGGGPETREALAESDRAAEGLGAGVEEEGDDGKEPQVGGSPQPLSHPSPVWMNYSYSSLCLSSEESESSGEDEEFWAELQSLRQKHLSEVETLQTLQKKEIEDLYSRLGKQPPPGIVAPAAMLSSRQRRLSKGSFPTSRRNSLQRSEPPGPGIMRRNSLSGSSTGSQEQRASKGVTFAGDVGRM

kinases (468) [30] = target: kinases (468) (Homo sapiens, UniProt Q9UHD2); settings: kinase TBK1 (Entrez TBK1); compound concentration 1000 nM
Chain of kinases (468) (Homo sapiens, UniProt Q9UHD2) (Q9UHD2 whole entry): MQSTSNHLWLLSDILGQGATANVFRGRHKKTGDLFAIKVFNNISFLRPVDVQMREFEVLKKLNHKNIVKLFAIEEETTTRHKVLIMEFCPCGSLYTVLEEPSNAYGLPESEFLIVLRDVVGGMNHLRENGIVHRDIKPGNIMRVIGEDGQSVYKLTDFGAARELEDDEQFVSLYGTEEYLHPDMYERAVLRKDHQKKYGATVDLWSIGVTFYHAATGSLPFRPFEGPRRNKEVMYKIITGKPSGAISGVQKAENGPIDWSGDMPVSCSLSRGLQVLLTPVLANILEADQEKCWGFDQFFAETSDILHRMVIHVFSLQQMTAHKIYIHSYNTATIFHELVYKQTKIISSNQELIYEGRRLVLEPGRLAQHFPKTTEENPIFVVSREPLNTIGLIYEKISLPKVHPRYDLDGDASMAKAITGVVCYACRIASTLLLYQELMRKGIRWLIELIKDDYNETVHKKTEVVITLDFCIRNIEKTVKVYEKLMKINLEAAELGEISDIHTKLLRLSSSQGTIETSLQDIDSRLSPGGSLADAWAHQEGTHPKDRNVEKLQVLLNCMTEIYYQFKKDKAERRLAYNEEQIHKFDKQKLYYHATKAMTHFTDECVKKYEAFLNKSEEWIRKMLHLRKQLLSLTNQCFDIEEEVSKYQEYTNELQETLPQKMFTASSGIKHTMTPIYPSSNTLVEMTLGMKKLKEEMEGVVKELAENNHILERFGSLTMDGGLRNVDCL

kinases (468) [31] = target: kinases (468) (Homo sapiens, UniProt Q9UEE5); settings: DRAK1 (STK17A); 1000 nM
kinases (468) [32] = target: kinases (468) (Homo sapiens, UniProt P49137); settings: MAPKAPK2; 1000 nM
Chain of kinases (468) (Homo sapiens, UniProt P49137) (P49137 whole entry): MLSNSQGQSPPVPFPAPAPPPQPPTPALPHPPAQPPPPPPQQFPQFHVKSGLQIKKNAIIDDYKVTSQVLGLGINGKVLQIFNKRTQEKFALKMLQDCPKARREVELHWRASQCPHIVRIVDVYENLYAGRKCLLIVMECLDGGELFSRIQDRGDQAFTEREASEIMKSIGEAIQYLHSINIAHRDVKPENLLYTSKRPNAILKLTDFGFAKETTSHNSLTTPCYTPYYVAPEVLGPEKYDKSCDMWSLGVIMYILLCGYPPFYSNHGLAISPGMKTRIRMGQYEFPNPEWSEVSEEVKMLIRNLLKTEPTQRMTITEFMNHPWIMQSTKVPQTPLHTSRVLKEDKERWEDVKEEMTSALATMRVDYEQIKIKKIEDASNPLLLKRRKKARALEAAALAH

kinases (468) [33] = target: kinases (468) (Homo sapiens, UniProt Q2M2I8); settings: AAK1; 1000 nM
kinases (468) [34] = target: kinases (468) (Homo sapiens, UniProt P36888, K663Q); settings: FLT3(K663Q); 1000 nM
kinases (468) [35] = target: kinases (468) (Homo sapiens, UniProt P29322); settings: EPHA8; 1000 nM

Chain of kinases (468) (Homo sapiens, UniProt Q13177) (Q13177 whole entry): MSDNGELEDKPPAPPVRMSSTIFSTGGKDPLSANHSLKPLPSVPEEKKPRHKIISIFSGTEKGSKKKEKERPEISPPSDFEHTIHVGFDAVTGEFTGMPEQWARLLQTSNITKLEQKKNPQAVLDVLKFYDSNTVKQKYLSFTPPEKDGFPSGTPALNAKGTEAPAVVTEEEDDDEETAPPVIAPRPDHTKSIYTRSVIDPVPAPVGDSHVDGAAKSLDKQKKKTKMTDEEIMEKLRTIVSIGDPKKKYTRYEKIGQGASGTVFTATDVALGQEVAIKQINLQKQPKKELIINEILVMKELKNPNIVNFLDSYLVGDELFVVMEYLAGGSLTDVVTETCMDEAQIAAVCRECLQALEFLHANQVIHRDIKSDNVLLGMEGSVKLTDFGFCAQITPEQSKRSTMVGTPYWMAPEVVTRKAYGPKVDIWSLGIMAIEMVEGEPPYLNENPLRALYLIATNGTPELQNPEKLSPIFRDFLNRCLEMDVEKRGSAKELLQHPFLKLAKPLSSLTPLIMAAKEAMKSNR

SMILES: C[C@H]1C[C@@H](O)CN(c2ncc(Cl)c(Nc3ccc4c(c3)c3c(c(=O)n4C)OCC(F)(F)[C@H](C4CC4)N3)n2)C1 [CCT373566_9A]
- Percent Control (kinases (468) [1]): 87%
- Percent Control (kinases (468) [2]): 100%
- Percent Control (kinases (468) [3]): 77%
- Percent Control (kinases (468) [4]): 76%
- Percent Control (kinases (468) [5]): 92%
- Percent Control (kinases (468) [6]): 89%
- Percent Control (kinases (468) [7]): 90%
- Percent Control (kinases (468) [8]): 100%
- Percent Control (kinases (468) [9]): 100%
- Percent Control (kinases (468) [10]): 80%
- Percent Control (kinases (468) [11]): 100%
- Percent Control (kinases (468) [12]): 100%
- Percent Control (kinases (468) [13]): 94%
- Percent Control (kinases (468) [14]): 85%
- Percent Control (kinases (468) [15]): 97%
- Percent Control (kinases (468) [16]): 100%
- Percent Control (kinases (468) [17]): 100%
- Percent Control (kinases (468) [18]): 94%
- Percent Control (kinases (468) [19]): 91%
- Percent Control (kinases (468) [20]): 100%
- Percent Control (kinases (468) [21]): 100%
- Percent Control (kinases (468) [22]): 100%
- Percent Control (kinases (468) [23]): 100%
- Percent Control (kinases (468) [24]): 100%
- Percent Control (kinases (468) [25]): 100%
- Percent Control (kinases (468) [26]): 100%
- Percent Control (kinases (468) [27]): 100%
- Percent Control (kinases (468) [28]): 93%
- Percent Control (kinases (468) [29]): 42%
- Percent Control (kinases (468) [30]): 100%
- Percent Control (kinases (468) [31]): 99%
- Percent Control (kinases (468) [32]): 97%
- Percent Control (kinases (468) [33]): 93%
- Percent Control (kinases (468) [34]): 97%
- Percent Control (kinases (468) [35]): 100%
